Assay results as given in PubChem BioAssay (NCI).
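Tested at 5 concentrations; 48 h exposure; 96-well plates; endpoints linearly interpolated, else capped at highest concentration. At the GI50, growth is halved. TGI is the concentration that stops growth completely.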

What was measured:
Experiment in all cases: inhibition of tumour cell growth, NCI panel, 48 h
CCRF-CEM leukemia = system: CCRF-CEM leukemia
SF-268 CNS = system: SF-268 CNS
DU-145 prostate = system: DU-145 prostate
NCI-H23 lung = system: NCI-H23 lung
PC-3 prostate = system: PC-3 prostate
HL-60(TB) leukemia = system: HL-60(TB) leukemia
SK-MEL-28 melanoma = system: SK-MEL-28 melanoma
UO-31 renal = system: UO-31 renal
UACC-257 melanoma = system: UACC-257 melanoma
OVCAR-5 ovarian = system: OVCAR-5 ovarian
SF-295 CNS = system: SF-295 CNS
SR leukemia = system: SR leukemia
HCT-116 colon = system: HCT-116 colon
SK-MEL-5 melanoma = system: SK-MEL-5 melanoma
HCT-15 colon = system: HCT-15 colon
HT29 colon = system: HT29 colon
UACC-62 melanoma = system: UACC-62 melanoma
MCF7 breast = system: MCF7 breast
OVCAR-4 ovarian = system: OVCAR-4 ovarian
TK-10 renal = system: TK-10 renal
RPMI-8226 leukemia = system: RPMI-8226 leukemia
T-47D breast = system: T-47D breast
M14 melanoma = system: M14 melanoma
ACHN renal = system: ACHN renal
SW-620 colon = system: SW-620 colon
NCI-H226 lung = system: NCI-H226 lung
OVCAR-8 ovarian = system: OVCAR-8 ovarian
A498 renal = system: A498 renal
SK-OV-3 ovarian = system: SK-OV-3 ovarian
SF-539 CNS = system: SF-539 CNS
HOP-62 NSCLC = system: HOP-62 NSCLC
SN12C renal = system: SN12C renal
HCC-2998 colon = system: HCC-2998 colon
OVCAR-3 ovarian = system: OVCAR-3 ovarian
SNB-19 CNS = system: SNB-19 CNS
NCI/ADR-RES ovarian = system: NCI/ADR-RES ovarian
786-0 renal = system: 786-0 renal
KM12 colon = system: KM12 colon
MALME-3M melanoma = system: MALME-3M melanoma
NCI-H522 lung = system: NCI-H522 lung
COLO 205 colon = system: COLO 205 colon
MOLT-4 leukemia = system: MOLT-4 leukemia
SK-MEL-2 melanoma = system: SK-MEL-2 melanoma
U251 CNS = system: U251 CNS
IGROV1 ovarian = system: IGROV1 ovarian
CAKI-1 renal = system: CAKI-1 renal
LOX IMVI melanoma = system: LOX IMVI melanoma
RXF 393 renal = system: RXF 393 renal
BT-549 breast = system: BT-549 breast
HOP-92 NSCLC = system: HOP-92 NSCLC
EKVX NSCLC = system: EKVX NSCLC
MDA-MB-231 breast = system: MDA-MB-231 breast
NCI-H460 lung = system: NCI-H460 lung
HS 578T breast = system: HS 578T breast
A549 NSCLC = system: A549 NSCLC
SNB-75 CNS = system: SNB-75 CNS
MDA-MB-435 = system: MDA-MB-435
K-562 leukemia = system: K-562 leukemia

## COc1ccccc1/C=C/C=N/NC1=NC2C(S1)N(C)C(=O)N2C (stereo not drawn)
CCRF-CEM leukemia
  GI50: 4.42 µM
  TGI: > 100 µM
SF-268 CNS
  GI50: 6.78 µM
  TGI: 38.5 µM
DU-145 prostate
  GI50: 5.74 µM
  TGI: > 100 µM
NCI-H23 lung
  GI50: 7.62 µM
  TGI: > 100 µM
PC-3 prostate
  GI50: 5.28 µM
  TGI: > 100 µM
HL-60(TB) leukemia
  GI50: 0.545 µM
  TGI: 4.37 µM
SK-MEL-28 melanoma
  GI50: 8.86 µM
  TGI: > 100 µM
UO-31 renal
  GI50: 4.03 µM
  TGI: 43.6 µM
UACC-257 melanoma
  GI50: 8.11 µM
  TGI: > 100 µM
OVCAR-5 ovarian
  GI50: 5.55 µM
  TGI: > 100 µM
SF-295 CNS
  GI50: 3.68 µM
  TGI: 38.2 µM
SR leukemia
  GI50: 2.74 µM
  TGI: 30.4 µM
HCT-116 colon
  GI50: 4.36 µM
  TGI: 90.8 µM
SK-MEL-5 melanoma
  GI50: 3.61 µM
  TGI: 13.8 µM
HCT-15 colon
  GI50: 3.96 µM
  TGI: > 100 µM
HT29 colon
  GI50: 3.33 µM
  TGI: 13.2 µM
UACC-62 melanoma
  GI50: 2.99 µM
  TGI: 34.1 µM
MCF7 breast
  GI50: 2.91 µM
  TGI: > 100 µM
OVCAR-4 ovarian
  GI50: 9.21 µM
  TGI: > 100 µM
TK-10 renal
  GI50: 14.3 µM
  TGI: 72.5 µM
RPMI-8226 leukemia
  GI50: 4.8 µM
  TGI: > 100 µM
T-47D breast
  GI50: 5.6 µM
  TGI: > 100 µM
M14 melanoma
  GI50: 3.9 µM
  TGI: 43 µM
ACHN renal
  GI50: 5.67 µM
  TGI: 93.9 µM
SW-620 colon
  GI50: 4.07 µM
  TGI: > 100 µM
NCI-H226 lung
  GI50: 3.53 µM
  TGI: 90.2 µM
OVCAR-8 ovarian
  GI50: 5.47 µM
  TGI: 51.9 µM
A498 renal
  GI50: 11.1 µM
  TGI: 94.6 µM
SK-OV-3 ovarian
  GI50: 6.93 µM
  TGI: 66.4 µM
SF-539 CNS
  GI50: 2.59 µM
  TGI: 8.6 µM
HOP-62 NSCLC
  GI50: 7.76 µM
  TGI: > 100 µM
SN12C renal
  GI50: 4.4 µM
  TGI: 30.7 µM
HCC-2998 colon
  GI50: 10.5 µM
  TGI: 33.2 µM
OVCAR-3 ovarian
  GI50: 2.5 µM
  TGI: 6.6 µM
SNB-19 CNS
  GI50: 6.28 µM
  TGI: > 100 µM
NCI/ADR-RES ovarian
  GI50: 4.19 µM
  TGI: > 100 µM
786-0 renal
  GI50: 5.77 µM
  TGI: 70.3 µM
KM12 colon
  GI50: 3.92 µM
  TGI: 17.7 µM
MALME-3M melanoma
  GI50: 4.73 µM
  TGI: 77.7 µM
NCI-H522 lung
  GI50: 1.68 µM
  TGI: 4.54 µM
COLO 205 colon
  GI50: 4.8 µM
  TGI: 20.3 µM
MOLT-4 leukemia
  GI50: 4.54 µM
  TGI: > 100 µM
SK-MEL-2 melanoma
  GI50: 3.02 µM
  TGI: 15.1 µM
U251 CNS
  GI50: 5.02 µM
  TGI: > 100 µM
IGROV1 ovarian
  GI50: 8.3 µM
  TGI: > 100 µM
CAKI-1 renal
  GI50: 4.11 µM
  TGI: > 100 µM
LOX IMVI melanoma
  GI50: 4.94 µM
  TGI: 21.2 µM
RXF 393 renal
  GI50: 2.43 µM
  TGI: 17 µM
BT-549 breast
  GI50: 2.94 µM
  TGI: 12.9 µM
HOP-92 NSCLC
  GI50: 3.39 µM
  TGI: 32.3 µM
EKVX NSCLC
  GI50: 9.85 µM
  TGI: > 100 µM
MDA-MB-231 breast
  GI50: 9.27 µM
  TGI: 75.8 µM
NCI-H460 lung
  GI50: 3.95 µM
  TGI: > 100 µM
HS 578T breast
  GI50: 3.82 µM
  TGI: > 100 µM
A549 NSCLC
  GI50: 7.31 µM
  TGI: > 100 µM
SNB-75 CNS
  GI50: 2.82 µM
  TGI: 49.3 µM

## CN(C)c1ccc(-c2c(NC(C)(C)C)nc3c(OCCc4ccccc4)cccn23)cc1
CCRF-CEM leukemia
  GI50: 3.29 µM
  TGI: > 100 µM
SF-268 CNS
  GI50: 3.53 µM
  TGI: > 100 µM
MDA-MB-435
  GI50: 3.16 µM
  TGI: 18.1 µM
DU-145 prostate
  GI50: 4.16 µM
  TGI: > 100 µM
NCI-H23 lung
  GI50: 2.91 µM
  TGI: 10.9 µM
PC-3 prostate
  GI50: 3.09 µM
  TGI: > 100 µM
HL-60(TB) leukemia
  GI50: 3.13 µM
  TGI: 8.38 µM
K-562 leukemia
  GI50: 3.33 µM
  TGI: 39.3 µM
SK-MEL-28 melanoma
  GI50: 3.85 µM
  TGI: > 100 µM
UO-31 renal
  GI50: 2.01 µM
  TGI: 7.22 µM
UACC-257 melanoma
  GI50: 2.78 µM
  TGI: 8.19 µM
OVCAR-5 ovarian
  GI50: 3.22 µM
  TGI: > 100 µM
SF-295 CNS
  GI50: 2.84 µM
  TGI: 8.7 µM
SR leukemia
  GI50: 3.04 µM
  TGI: 18.7 µM
HCT-116 colon
  GI50: 3.23 µM
  TGI: 20.8 µM
SK-MEL-5 melanoma
  GI50: 1.83 µM
  TGI: 3.37 µM
HCT-15 colon
  GI50: 3.3 µM
  TGI: 24 µM
HT29 colon
  GI50: 2 µM
  TGI: 5.67 µM
UACC-62 melanoma
  GI50: 3.53 µM
  TGI: 52.1 µM
MCF7 breast
  GI50: 2.87 µM
  TGI: 9.82 µM
OVCAR-4 ovarian
  GI50: 3.06 µM
  TGI: 12.8 µM
TK-10 renal
  GI50: 2.34 µM
  TGI: 6.8 µM
RPMI-8226 leukemia
  GI50: 2.53 µM
  TGI: 6.74 µM
T-47D breast
  GI50: 3.43 µM
  TGI: > 100 µM
M14 melanoma
  GI50: 3.48 µM
  TGI: 75.6 µM
ACHN renal
  GI50: 3.24 µM
  TGI: > 100 µM
SW-620 colon
  GI50: 2.94 µM
  TGI: 22.1 µM
NCI-H226 lung
  GI50: 2.72 µM
  TGI: 8.86 µM
OVCAR-8 ovarian
  GI50: 3.04 µM
  TGI: > 100 µM
A498 renal
  GI50: 2.52 µM
  TGI: 7.83 µM
SK-OV-3 ovarian
  GI50: 3.08 µM
  TGI: 35.8 µM
SF-539 CNS
  GI50: 4.16 µM
  TGI: 19.2 µM
HOP-62 NSCLC
  GI50: 3.4 µM
  TGI: 16.9 µM
SN12C renal
  GI50: 2.93 µM
  TGI: > 100 µM
HCC-2998 colon
  GI50: 3.55 µM
  TGI: > 100 µM
OVCAR-3 ovarian
  GI50: 3.04 µM
  TGI: 12.9 µM
SNB-19 CNS
  GI50: 3.43 µM
  TGI: 15.6 µM
NCI/ADR-RES ovarian
  GI50: 3.09 µM
  TGI: > 100 µM
786-0 renal
  GI50: 3.57 µM
  TGI: 15.5 µM
KM12 colon
  GI50: 3.3 µM
  TGI: 16.1 µM
MALME-3M melanoma
  GI50: 2.3 µM
  TGI: 5.95 µM
NCI-H522 lung
  GI50: 2.59 µM
  TGI: 6.65 µM
COLO 205 colon
  GI50: 2.2 µM
  TGI: 5.24 µM
MOLT-4 leukemia
  GI50: 3.46 µM
  TGI: 14 µM
SK-MEL-2 melanoma
  GI50: 2.31 µM
  TGI: 4.99 µM
U251 CNS
  GI50: 3.24 µM
  TGI: 11.4 µM
IGROV1 ovarian
  GI50: 4.3 µM
  TGI: > 100 µM
CAKI-1 renal
  GI50: 2.95 µM
  TGI: 10.5 µM
LOX IMVI melanoma
  GI50: 3 µM
  TGI: 20.7 µM
RXF 393 renal
  GI50: 1.94 µM
  TGI: 5.66 µM
BT-549 breast
  GI50: 2.98 µM
  TGI: 8.45 µM
HOP-92 NSCLC
  GI50: 2.09 µM
  TGI: 6.15 µM
EKVX NSCLC
  GI50: 2.89 µM
  TGI: 9.64 µM
MDA-MB-231 breast
  GI50: 2.71 µM
  TGI: 7.87 µM
NCI-H460 lung
  GI50: 2.99 µM
  TGI: 9.66 µM
HS 578T breast
  GI50: 2.62 µM
  TGI: 9.02 µM
A549 NSCLC
  GI50: 3.58 µM
  TGI: > 100 µM
SNB-75 CNS
  GI50: 1.79 µM
  TGI: 8.55 µM
